# Assay results reported in ChEMBL document CHEMBL5257072, “Synthesis of Lathyrol PROTACs and Evaluation of Their Anti-Inflammatory Activities” (J Nat Prod, 2023).
# Active and inactive are the calls of the source. The rule behind the calls is not given here.
# Tests used:
# RAW264.7 [1] = test: Anti-inflammatory activity in mouse RAW264.7 cells assessed as inhibition of LPS-induced NO production incubated for 3 hrs followed by LPS addition and measured after 24 hrs; assay type: functional, cell-based
# RAW264.7 [2] = test: Cytotoxicity against mouse RAW264.7 cells assessed as reduction in cell viability incubated for 24 hrs by CCK-8 method; assay type: functional, cell-based; conditions: RAW264.7, 24 h
# [3] = biological target: Transcription factor MafF (Mus musculus) (UniProt O54791); test: Induction of degradation of MAFF in mouse RAW264.7 cells at 20 uM measured after 24 hrs; assay type: cell-based
# Chain of Transcription factor MafF (Mus musculus) (O54791 whole entry): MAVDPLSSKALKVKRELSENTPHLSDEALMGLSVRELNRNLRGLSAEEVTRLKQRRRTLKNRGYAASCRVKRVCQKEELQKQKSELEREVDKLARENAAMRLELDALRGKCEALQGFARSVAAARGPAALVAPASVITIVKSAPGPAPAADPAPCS
# [4] = biological target: Transcription factor MafF (Mus musculus) (UniProt O54791); test: Induction of degradation of MAFF in mouse RAW264.7 cells at 2.5 to 20 uM measured after 24 hrs; assay type: cell-based; conditions: dose 2.5-20 µM
# [5] = biological target: Transcription factor MafF (Mus musculus) (UniProt O54791); test: Induction of degradation of MAFF in mouse RAW264.7 cells at 40 uM measured after 24 hrs; assay type: cell-based
# [6] = biological target: Transcription factor MafF (Mus musculus) (UniProt O54791); test: Induction of degradation of MAFF in mouse RAW264.7 cells assessed as reduction in MAFF expression at 20 uM measured after 24 hrs; assay type: cell-based
# [7] = biological target: Transcription factor MafF (Mus musculus) (UniProt O54791); test: Induction of degradation of MAFF in mouse RAW264.7 cells at 20 uM incubated for 24 hrs in presence of MG132 by Western blot analysis; assay type: cell-based
# RAW264.7 [8] = test: Antiinflammatory activity in LPS induced mouse RAW264.7 cells assessed as inhibition of ROS production by DCFH-DA staining based fluorescence assay; assay type: functional, cell-based; conditions: dose 5-20 µM
# RAW264.7 [9] = test: Antiinflammatory activity in LPS induced mouse RAW264.7 cells assessed as upregulation of Nrf2 expression at 5 to 20 uM; assay type: functional, cell-based; conditions: dose 5-20 µM
# RAW264.7 [10] = test: Antiinflammatory activity in LPS induced mouse RAW264.7 cells assessed as upregulation of heme oxygenase I expression at 5 to 20 uM; assay type: functional, cell-based; conditions: dose 5-20 µM
# RAW264.7 [11] = test: Antiinflammatory activity in LPS induced mouse RAW264.7 cells assessed as reduction in inducible nitric oxide synthase by immunofluorescence analysis; assay type: functional, cell-based; conditions: dose 5-20 µM
# RAW264.7 [12] = test: Antiinflammatory activity in LPS induced mouse RAW264.7 cells assessed as inhibition of […] phosphorylation at 5 to 20 uM by immunofluorescence analysis; assay type: functional, cell-based; conditions: dose 5-20 µM
# RAW264.7 [13] = test: Antiinflammatory activity in LPS induced mouse RAW264.7 cells assessed as inhibition of NF-kappaB phosphorylation at 5 to 20 uM by immunofluorescence analysis; assay type: functional, cell-based; conditions: dose 5-20 µM
# RAW264.7 [14] = test: Antiinflammatory activity in LPS induced mouse RAW264.7 cells assessed as inhibition of nuclear translocation of NF-kappaB at 20 uM by immunofluorescence analysis; assay type: functional, cell-based
# RAW264.7 [15] = test: Induction of autophagy in LPS induced mouse RAW264.7 cells assessed as increase in p62 expression at 5 to 40 uM by Western blot analysis; assay type: functional, cell-based; conditions: dose 5-40 µM
# RAW264.7 [16] = test: Induction of autophagy in LPS induced mouse RAW264.7 cells assessed as increase in LC3B-II expression at 5 to 40 uM by Western blot analysis; assay type: functional, cell-based; conditions: dose 5-40 µM
# RAW264.7 [17] = test: Cytotoxicity against mouse RAW264.7 cells assessed as reduction in cell viability at 25 uM incubated for 24 hrs by CCK-8 method; assay type: functional, cell-based
SMILES,IC50 (RAW264.7 [1]) [µM],IC50 (RAW264.7 [2]) [µM],other results
C=C1CC[C@H]2[C@@H](/C=C(\C)C(=O)[C@@]3(O)C[C@H](C)[C@H](O)[C@@H]3[C@H]1OCc1cn(CCOCCOCCOCCNC(=O)[C@H](CC(C)C)NC(=O)[C@@H](O)[C@@H](Cc3ccccc3)NC(=O)OC(C)(C)C)nn1)C2(C)C,> 20,> 50,–
C=C1CC[C@H]2[C@@H](/C=C(\C)C(=O)[C@@]3(O)C[C@H](C)[C@H](O)[C@@H]3[C@H]1OCc1cn(CCOCCOCCOCCOCCNC(=O)CN3CCN(C(=O)N4C(c5ccc(OC)cc5OC(C)C)=N[C@H](c5ccc(Cl)cc5)[C@@H]4c4ccc(Cl)cc4)CC3=O)nn1)C2(C)C,> 20,–,Activity (RAW264.7 [17]): Active
C=C1CC[C@H]2[C@@H](/C=C(\C)C(=O)[C@@]3(O)C[C@H](C)[C@H](O)[C@@H]3[C@H]1OCc1cn(CCCC(=O)N[C@H](C(=O)N3C[C@H](O)C[C@H]3C(=O)NCc3ccc(-c4scnc4C)cc3)C(C)(C)C)nn1)C2(C)C,> 20,> 50,–
C=C1CC[C@H]2[C@@H](/C=C(\C)C(=O)[C@@]3(O)C[C@H](C)[C@H](O)[C@@H]3[C@H]1OCc1cn(CC(=O)N[C@H](Cc3ccccc3)[C@H](O)C(=O)N[C@@H](CC(C)C)C(=O)OC)nn1)C2(C)C,> 20,> 50,–
C=C1CC[C@H]2[C@@H](/C=C(\C)C(=O)[C@@]3(O)C[C@H](C)[C@H](O)[C@@H]3[C@H]1OCc1cn(CCCC(=O)N[C@H](C(=O)N3C[C@H](O)C[C@H]3C(=O)N[C@H](C)c3ccc(-c4scnc4C)cc3)C(C)(C)C)nn1)C2(C)C,> 20,> 50,–
C=C1CC[C@H]2[C@@H](/C=C(\C)C(=O)[C@@]3(O)C[C@H](C)[C@H](O)[C@@H]3[C@H]1OCc1cn(CC(=O)N[C@H](C(=O)N3C[C@H](O)C[C@H]3C(=O)NCc3ccc(-c4scnc4C)cc3)C(C)(C)C)nn1)C2(C)C,> 20,> 50,–
C=C1CC[C@H]2[C@@H](/C=C(\C)C(=O)[C@@]3(O)C[C@H](C)[C@H](O)[C@@H]3[C@H]1OCc1cn(CCOCCOCCOCCNC(=O)CN3CCN(C(=O)N4C(c5ccc(OC)cc5OC(C)C)=N[C@H](c5ccc(Cl)cc5)[C@@H]4c4ccc(Cl)cc4)CC3=O)nn1)C2(C)C,> 20,–,Activity (RAW264.7 [17]): Active
C=C1CC[C@H]2[C@@H](/C=C(\C)C(=O)[C@@]3(O)C[C@H](C)[C@H](O)[C@@H]3[C@H]1OCc1cn(CCCCCC(=O)N[C@H](C(=O)N3C[C@H](O)C[C@H]3C(=O)NCc3ccc(-c4scnc4C)cc3)C(C)(C)C)nn1)C2(C)C,> 20,–,Activity (RAW264.7 [17]): Active
C=C1CC[C@H]2[C@@H](/C=C(\C)C(=O)[C@@]3(O)C[C@H](C)[C@H](O)[C@@H]3[C@H]1OCc1cn(CCOCCOCCNC(=O)CN3CCN(C(=O)N4C(c5ccc(OC)cc5OC(C)C)=N[C@H](c5ccc(Cl)cc5)[C@@H]4c4ccc(Cl)cc4)CC3=O)nn1)C2(C)C,> 20,–,Activity (RAW264.7 [17]): Active

# The next lines start with results.
IC50 (RAW264.7 [1]) [µM],SMILES,IC50 (RAW264.7 [2]) [µM],other results
5.3,C=C1CC[C@H]2[C@@H](/C=C(\C)C(=O)[C@@]3(O)C[C@H](C)[C@H](O)[C@@H]3[C@H]1OCc1cn(CCOCCOCCNC(=O)[C@H](CC(C)C)NC(=O)[C@@H](O)[C@@H](Cc3ccccc3)NC(=O)OC(C)(C)C)nn1)C2(C)C,> 50,Activity [3]: Active; Activity [4]: Active; Activity [5]: inactive; Activity [6]: Active; Activity [7]: inactive; Activity (RAW264.7 [8]): Dose-Dependent Effect; Activity (RAW264.7 [9]): Active; Activity (RAW264.7 [10]): Active; Activity (RAW264.7 [11]): Dose-Dependent Effect; Activity (RAW264.7 [12]): Active; Activity (RAW264.7 [13]): Active; Activity (RAW264.7 [14]): Active; Activity (RAW264.7 [15]): Active; Activity (RAW264.7 [16]): Active
> 20,C=C1CC[C@H]2[C@@H](/C=C(\C)C(=O)[C@@]3(O)C[C@H](C)[C@H](O)[C@@H]3[C@H]1OCc1cn(CCCCCC(=O)N[C@H](C(=O)N3C[C@H](O)C[C@H]3C(=O)N[C@H](C)c3ccc(-c4scnc4C)cc3)C(C)(C)C)nn1)C2(C)C,> 50,–
> 20,C=C1CC[C@H]2[C@@H](/C=C(\C)C(=O)[C@@]3(O)C[C@H](C)[C@H](O)[C@@H]3[C@H]1OCc1cn(CCCC(=O)N[C@H](Cc3ccccc3)[C@H](O)C(=O)N[C@@H](CC(C)C)C(=O)OC)nn1)C2(C)C,> 50,–
> 20,C=C1CC[C@H]2[C@@H](/C=C(\C)C(=O)[C@@]3(O)C[C@H](C)[C@H](O)[C@@H]3[C@H]1OCc1cn(CC(=O)N[C@H](C(=O)N3C[C@H](O)C[C@H]3C(=O)N[C@H](C)c3ccc(-c4scnc4C)cc3)C(C)(C)C)nn1)C2(C)C,> 50,–
> 20,C=C1CC[C@H]2[C@@H](/C=C(\C)C(=O)[C@@]3(O)C[C@H](C)[C@H](O)[C@@H]3[C@H]1OCc1cn(CCOCCOCCOCCOCCNC(=O)[C@H](CC(C)C)NC(=O)[C@@H](O)[C@@H](Cc3ccccc3)NC(=O)OC(C)(C)C)nn1)C2(C)C,> 50,–
> 20,C=C1CC[C@H]2[C@@H](/C=C(\C)C(=O)[C@@]3(O)C[C@H](C)[C@H](O)[C@@H]3[C@H]1OCc1cn(CCCCCC(=O)N[C@H](Cc3ccccc3)[C@H](O)C(=O)N[C@@H](CC(C)C)C(=O)OC)nn1)C2(C)C,> 50,–
